Values joined by “and” are separate entries in the source; they are usually repeats but may differ in a detail not shown here. Equal values may be shown once.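 Values below derive from 48-hour exposures of cells grown in 96-well plates, with endpoints linearly interpolated between the two concentrations bracketing the appropriate inhibition level. Here, GI50 denotes the concentration required for 50% inhibition of growth. TGI is the concentration that stops growth completely.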
What was measured:
Test in all cases: NCI anticancer screen, dose series, 48 h
A498 renal = system: A498 renal
HCT-15 colon = system: HCT-15 colon
IGROV1 ovarian = system: IGROV1 ovarian
K-562 leukemia = system: K-562 leukemia
LOX IMVI melanoma = system: LOX IMVI melanoma
MALME-3M melanoma = system: MALME-3M melanoma
RXF 393 renal = system: RXF 393 renal
SN12C renal = system: SN12C renal
SNB-19 CNS = system: SNB-19 CNS
SR leukemia = system: SR leukemia

| Compound | TGI (A498 renal) [µM] | TGI (HCT-15 colon) | TGI (IGROV1 ovarian) | TGI (K-562 leukemia) | TGI (LOX IMVI melanoma) | TGI (MALME-3M melanoma) | TGI (RXF 393 renal) [µM] | TGI (SN12C renal) | TGI (SNB-19 CNS) | TGI (SR leukemia) [µM] | GI50 (A498 renal) [µM] | GI50 (HCT-15 colon) [µM] | GI50 (IGROV1 ovarian) [µM] | GI50 (K-562 leukemia) [µM] | GI50 (LOX IMVI melanoma) [µM] | GI50 (MALME-3M melanoma) [µM] | GI50 (RXF 393 renal) [µM] | GI50 (SN12C renal) [µM] | GI50 (SNB-19 CNS) [µM] | GI50 (SR leukemia) [µM] |
| --- | --- | --- | --- | --- | --- | --- | --- | --- | --- | --- | --- | --- | --- | --- | --- | --- | --- | --- | --- | --- |
| O=[N+]([O-])c1cccnc1S(=O)(=O)c1ccccc1 | 36.6 | 21.7 µM | 20.3 µM | > 43.8 µM | 15.7 µM | 23.8 µM | 3.77 | 23.5 µM | 34.1 µM | > 100 | – | – | – | – | – | – | – | – | – | – |
| CN(C)CCCOc1ccc(NC2=C(Cl)C(=O)C(Nc3ccc(OCCCN(C)C)cc3)=C(Cl)C2=O)cc1 | 3.32 | 0.958 µM | 1.11 µM | 0.798 µM | 0.902 µM | 0.935 µM | 2.45 | 1.05 µM | 3.39 µM | 3.25 | 1.66 | 0.411 | 0.544 | 0.276 | 0.422 | 0.336 | 1.19 | 0.548 | 1.73 | 0.312 |
| O=C1C2C(C(=O)N1Cc1ccccc1)N(Cc1ccccc1)C(=O)N2Cc1ccccc1 (configuration not stated) | > 100 | > 100 µM | > 100 µM | > 100 µM | > 100 µM | > 100 µM | > 100 | > 100 µM | > 100 µM | > 100 | – | – | – | – | – | – | – | – | – | – |
| CC(=O)Nc1cccc(C#Cc2cncnc2Nc2ccc(OCc3cccc(F)c3)c(Cl)c2)c1 | > 16.6 | > 25 µM | > 25 µM | > 25 µM | > 25 µM | > 25 µM | > 15.1 | > 25 µM | > 25 µM | > 25 | 1.1 | 7.41 | 4.49 | 8.96 | 8.12 | 12.5 | 0.753 | 10.2 | 24.6 | > 18.7 |
| C/C(=C/CCC(C)[C@@H]1CC[C@]2(C)C3=C(CC[C@@]12C)[C@@]1(C)CCC(=O)C(C)(C)[C@@H]1CC3)C(=O)O (some centres not stated) | 2.39 | 3 µM | 2.6 µM | – | 2.49 µM | 3.5 µM | 3.08 | 2.89 µM | 2.68 µM | 2.93 | 0.975 | 0.974 | 1.19 | – | 0.961 | 1.66 | 1.51 | 1.21 | 1.17 | 1.14 |
| C/C(=N\NC(=S)N1CCC1)c1ccccn1 | 10.6 | 45.4 µM | 22.7 µM | > 100 µM | 15.9 µM | 7.65 µM | 4.39 | > 100 µM | > 100 µM | – | – | 0.00336 | 0.00798 | 0.00393 | 0.00525 | 0.0101 | – | 0.0289 | – | 0.00819 |
| O=C([O-])c1ccc([I+]c2ccccc2)cc1 | > 100 | > 100 µM | > 100 µM | > 100 µM | > 100 µM | > 100 µM | > 100 | > 100 µM | > 100 µM | > 100 | – | – | – | – | – | – | – | – | – | – |
| C#COc1cccc(Nc2ncnc3cc(NC(=O)[C@@H](C)Cl)ccc23)c1 | 49.9 | > 62.5 µM | > 62.5 µM | > 62.5 µM | > 62.5 µM | > 62.5 µM | 40.8 | > 62.5 µM | > 62.5 µM | > 62.5 | 7.16 | 3.98 | 5.29 | 2.56 | 4.88 | 20.1 | 8.12 | 16.8 | 19.2 | 3.08 |
| O=C(O)c1ccccc1C(=O)c1ccco1 | > 100 | > 100 µM | > 100 µM | > 100 µM | > 100 µM | > 100 µM | > 100 | > 100 µM | > 100 µM | > 100 | – | – | – | – | – | – | – | – | – | – |
| CCc1ccc(Oc2c(-c3ccc(OCc4ccc(Cl)cc4)cc3O)nn(C)c2C(F)(F)F)cc1 | 2.93 | 1.45 µM | 2.7 µM | 1.58 µM | 1.51 µM | 2.6 µM | 2.59 | 2.48 µM | 2.14 µM | 3.76 | 1.28 | 0.365 | 0.654 | 0.39 | 0.416 | 1.14 | 1.14 | 1.04 | 0.591 | 0.502 |
| CCOC(=O)C[C@@]12CCCN[C@]1(C)CCc1ccccc12 | > 100 | > 100 µM | > 100 µM | > 100 µM | > 100 µM | > 100 µM | > 100 | > 100 µM | > 100 µM | > 100 | – | – | – | – | – | – | – | – | – | – |
| OCCNc1nc2ccccc2c2[nH]c3ccccc3c12 | 1.72 | 3.59 µM | 6.1 µM | > 26.3 µM | 1.8 µM | 1.91 µM | 0.646 | 11.4 µM | 3.57 µM | 5.95 | 0.36 | 0.349 | 0.397 | 0.44 | 0.419 | 0.487 | 0.146 | 0.34 | 0.345 | 0.206 |
| Oc1cn(-c2ccc(Cl)cc2)nc1-c1n[nH]c(=S)n1-c1ccc(F)cc1 | 76.5 | > 100 µM | 24.1 µM | > 100 µM | 43 µM | > 100 µM | > 100 | 50.3 µM | > 100 µM | > 100 | 34.6 | 11.3 | 7.12 | 12.6 | 16.8 | 25.9 | 28 | 16.9 | 61.9 | – |
| CCCCCCCCCCCCCC(=O)O[C@H]1CC[C@H](NC(=O)[C@H](OC)[C@H](O)[C@@H](O)[C@H](O)/C=C/C(C)C)C(=O)N(C)C1 | > 23.8 | 15 µM and > 23.8 µM | 15 µM and > 23.8 µM | 15 µM and > 23.8 µM | 15 µM and 3.34 µM | 15 µM and > 23.8 µM | – | 15 µM and 4.84 µM | 15 µM and > 23.8 µM | 2.46 | 0.453 | 0.23 | 0.00377 | 0.00238 | – | 0.00717 | 0.00238 | 0.00238 | 0.0093 | – |
| Nc1c(C(=O)Nc2ccccc2)sc2nc3c(cc12)C(=O)CCC3 | – | > 100 µM | > 100 µM | > 100 µM | > 100 µM | > 100 µM | 0.619 | > 100 µM | > 100 µM | > 100 | 0.282 | 0.407 | 1.01 | 0.287 | – | 4.66 | 0.19 | 6.2 | 0.73 | 0.533 |
| CCOC(=O)CNC(=O)c1[nH]cnc1/N=N/N(C)C | > 100 | > 100 µM | > 100 µM | > 100 µM | > 100 µM | > 100 µM | – | > 100 µM | > 100 µM | > 100 | – | – | – | – | – | – | – | – | – | – |
| NC(=O)c1nc(-c2c(F)cccc2Cl)oc1Nc1ccc(C(=O)N2CCOCC2)cc1 | 3.28 | > 100 µM | – | > 100 µM | 5.61 µM | 55.6 µM | 5.54 | > 100 µM | > 100 µM | 84.7 | 0.544 | 2.2 | – | 4.66 | 0.914 | 13 | 0.964 | 2.12 | 3 | 1 |
| CCOC(=O)C1=C(C)N(NC(N)=O)C2(N)N(NC(N)=O)C(C)=C(C(=O)OCC)C12C#N (configuration not stated) | > 100 | > 100 µM | > 100 µM | > 100 µM | > 100 µM | > 100 µM | – | > 100 µM | > 100 µM | > 100 | – | – | – | – | – | – | – | – | – | – |
| N#CN1CC[C@H](C(=O)Nc2ncc(-c3ccccc3)s2)C1 | 3.45 | 3.65 µM | 5.59 µM | 11 µM | 1.65 µM | 1.42 µM | – | 7.24 µM | 11.3 µM | 1.29 | 1.62 | 0.312 | 0.449 | 0.455 | 0.267 | 0.232 | – | 0.471 | 1.11 | 0.222 |
| CCN(CC)CCCC(Nc1c2ccc(Cl)cc2nc2ccc(OC)cc12)c1ccc(Cl)cc1 (configuration not stated) | 2.64 | 1.59 µM | – | 0.432 µM | – | 3.55 µM | 2.31 | – | – | 0.512 | 1.26 | 0.404 | – | 0.221 | – | 1.88 | 1.03 | – | – | 0.217 |
| CCOC(=O)C(Cc1ccc(N=NN(C)C)cc1)NC(=O)CC1c2ccccc2-c2ccccc21 (configuration not stated) | > 100 | > 100 µM | > 100 µM | > 100 µM | > 100 µM | > 100 µM | – | > 100 µM | > 100 µM | > 100 | – | – | – | – | – | – | – | – | – | – |
| CCOC(=O)c1cc(C(=O)c2ccc(OC)c(OC)c2)n2c1ccc1ccc3cccnc3c12 | > 100 | > 100 µM | > 100 µM | – | > 100 µM | > 100 µM | – | > 100 µM | > 100 µM | > 100 | 2.82 | 1.25 | 2.33 | – | 2.6 | 1.24 | – | 5.46 | 5.07 | 0.807 |
| CC(C)N(C(=O)C12C3C4C1C1C4(C#N)C3C12C(=O)O)C(C)C (configuration not stated) | > 100 | > 68.2 µM | > 100 µM | > 100 µM | > 100 µM | > 100 µM | – | > 100 µM | > 100 µM | 41.4 | – | – | – | – | – | – | – | – | – | – |
| N#Cc1ccccc1Sc1ccccc1N | > 100 | – | > 100 µM | > 100 µM | > 100 µM | > 100 µM | > 100 | > 100 µM | > 100 µM | > 100 | – | – | – | – | – | – | – | – | – | – |
